Experimental data from ChEMBL document CHEMBL1759982, “Hybrid compounds as new Bcr/Abl inhibitors” (Bioorg Med Chem Lett, 2011).
Blank lines part the entries; values can stand above or below the molecule they belong to. Active and inactive are the calls of the source. The rule behind the calls is not given here.

What was measured:
[1] = biological target: Bcr/Abl fusion protein (Homo sapiens, UniProt P00519); assay: Inhibition of Bcr/Abl by FRET-based Z-lyte assay; type: protein assay
[2] = system: K562; assay: Antiproliferative activity against human K562 cells; type: functional, cell-based
[3] = Antiproliferative activity against human KU812 cells; type: functional, cell-based
[4] = system: K562; assay: Antiproliferative activity against human imatinib-resistant K562 cells; type: functional, cell-based
[5] = biological target: Bcr/Abl fusion protein (Homo sapiens) (UniProt P00519+P11274); assay: Inhibition of Bcr/Abl autophosphorylation in human K562 cells after 4 hrs by Western blotting; type: cell-based
Bcr/Abl fusion protein (Homo sapiens), sequence (P00519 whole entry, looked up, the tested form may be a part): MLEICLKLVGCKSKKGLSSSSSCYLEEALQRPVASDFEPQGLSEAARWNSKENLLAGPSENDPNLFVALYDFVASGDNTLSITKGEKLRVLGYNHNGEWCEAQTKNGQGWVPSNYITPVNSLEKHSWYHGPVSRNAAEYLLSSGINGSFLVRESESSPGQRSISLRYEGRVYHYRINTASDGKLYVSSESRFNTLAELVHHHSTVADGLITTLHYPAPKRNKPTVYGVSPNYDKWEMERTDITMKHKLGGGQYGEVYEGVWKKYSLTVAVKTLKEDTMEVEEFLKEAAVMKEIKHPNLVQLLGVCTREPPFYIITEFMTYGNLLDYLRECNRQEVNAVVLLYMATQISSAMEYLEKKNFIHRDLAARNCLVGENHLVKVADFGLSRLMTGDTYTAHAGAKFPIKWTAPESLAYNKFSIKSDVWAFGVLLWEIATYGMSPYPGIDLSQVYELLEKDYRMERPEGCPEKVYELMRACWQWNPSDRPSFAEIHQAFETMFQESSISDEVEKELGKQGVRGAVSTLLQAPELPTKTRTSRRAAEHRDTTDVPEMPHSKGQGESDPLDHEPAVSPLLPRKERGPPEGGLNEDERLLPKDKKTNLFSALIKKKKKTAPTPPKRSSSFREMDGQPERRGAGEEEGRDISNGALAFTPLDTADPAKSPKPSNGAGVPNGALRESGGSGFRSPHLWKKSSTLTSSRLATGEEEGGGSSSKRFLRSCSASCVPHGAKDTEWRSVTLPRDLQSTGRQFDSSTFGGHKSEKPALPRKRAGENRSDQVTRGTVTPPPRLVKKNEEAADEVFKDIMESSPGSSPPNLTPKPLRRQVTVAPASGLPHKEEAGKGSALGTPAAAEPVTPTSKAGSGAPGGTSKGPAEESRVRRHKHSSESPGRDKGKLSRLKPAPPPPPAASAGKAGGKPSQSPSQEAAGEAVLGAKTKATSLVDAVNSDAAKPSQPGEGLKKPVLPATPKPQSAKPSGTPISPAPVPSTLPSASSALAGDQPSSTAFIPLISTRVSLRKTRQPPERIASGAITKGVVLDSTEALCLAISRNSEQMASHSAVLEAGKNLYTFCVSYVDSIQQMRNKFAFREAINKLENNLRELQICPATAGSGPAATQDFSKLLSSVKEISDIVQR
Bcr/Abl fusion protein (Homo sapiens), sequence (P11274 whole entry, looked up, the tested form may be a part): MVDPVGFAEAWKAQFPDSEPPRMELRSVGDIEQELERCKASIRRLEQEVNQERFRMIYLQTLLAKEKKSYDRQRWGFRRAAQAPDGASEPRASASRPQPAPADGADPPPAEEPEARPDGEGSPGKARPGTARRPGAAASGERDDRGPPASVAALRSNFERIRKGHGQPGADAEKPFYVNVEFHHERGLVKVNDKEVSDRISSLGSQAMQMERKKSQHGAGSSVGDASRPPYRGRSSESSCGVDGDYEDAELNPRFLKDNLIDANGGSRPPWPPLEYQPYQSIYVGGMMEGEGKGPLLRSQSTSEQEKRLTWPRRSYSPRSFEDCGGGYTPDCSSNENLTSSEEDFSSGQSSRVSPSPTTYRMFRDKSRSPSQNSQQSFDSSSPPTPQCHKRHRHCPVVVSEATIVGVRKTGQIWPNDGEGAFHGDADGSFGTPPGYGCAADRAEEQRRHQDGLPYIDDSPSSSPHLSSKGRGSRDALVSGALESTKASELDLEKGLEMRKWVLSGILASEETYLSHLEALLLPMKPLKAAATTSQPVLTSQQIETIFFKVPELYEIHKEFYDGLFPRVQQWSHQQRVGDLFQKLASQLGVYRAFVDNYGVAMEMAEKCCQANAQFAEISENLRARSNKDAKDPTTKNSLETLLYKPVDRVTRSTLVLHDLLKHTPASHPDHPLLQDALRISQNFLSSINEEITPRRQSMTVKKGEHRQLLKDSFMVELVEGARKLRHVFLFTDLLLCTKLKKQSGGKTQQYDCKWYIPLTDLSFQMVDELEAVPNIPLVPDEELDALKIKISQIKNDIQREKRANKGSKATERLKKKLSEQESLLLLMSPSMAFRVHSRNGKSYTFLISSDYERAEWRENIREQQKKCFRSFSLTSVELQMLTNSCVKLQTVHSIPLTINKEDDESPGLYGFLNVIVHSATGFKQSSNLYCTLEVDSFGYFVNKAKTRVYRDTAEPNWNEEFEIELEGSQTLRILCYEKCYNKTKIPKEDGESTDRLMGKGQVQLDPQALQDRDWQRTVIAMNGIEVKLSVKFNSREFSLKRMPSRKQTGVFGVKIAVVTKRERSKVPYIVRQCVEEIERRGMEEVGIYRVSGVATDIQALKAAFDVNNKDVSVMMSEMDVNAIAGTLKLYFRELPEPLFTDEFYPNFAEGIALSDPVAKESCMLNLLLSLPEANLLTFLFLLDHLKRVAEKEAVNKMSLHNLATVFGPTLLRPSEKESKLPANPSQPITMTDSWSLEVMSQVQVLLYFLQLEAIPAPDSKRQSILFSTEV

[6] = system: K562; assay: Cell cycle arrest in human K562 cells assessed as accumulation at G0/G1 phase at 20 nM by Flow cytometry (reference value: 49.42%); type: functional
[7] = system: K562; assay: Cell cycle arrest in human K562 cells assessed as accumulation at G0/G1 phase at 50 nM by Flow cytometry (reference value: 49.42%); type: functional
[8] = system: K562; assay: Cell cycle arrest in human K562 cells assessed as accumulation at G0/G1 phase at 100 nM by Flow cytometry (reference value: 49.42%); type: functional
[9] = system: K562; assay: Cell cycle arrest in human K562 cells assessed as accumulation at S phase at 20 nM by Flow cytometry (reference value: 46.15%); type: functional
[10] = system: K562; assay: Cell cycle arrest in human K562 cells assessed as accumulation at S phase at 50 nM by Flow cytometry (reference value: 46.15%); type: functional
[11] = system: K562; assay: Cell cycle arrest in human K562 cells assessed as accumulation at S phase at 100 nM by Flow cytometry (reference value: 46.15%); type: functional
[12] = system: K562; assay: Cell cycle arrest in human K562 cells assessed as accumulation at G2/M1 phase at 20 nM by Flow cytometry (reference value: 4.43%); type: functional
[13] = system: K562; assay: Cell cycle arrest in human K562 cells assessed as accumulation at G2/M1 phase at 50 nM by Flow cytometry (reference value: 4.43%); type: functional
[14] = system: K562; assay: Cell cycle arrest in human K562 cells assessed as accumulation at G2/M1 phase at 100 nM by Flow cytometry (reference value: 4.43%); type: functional
[15] = system: K562; assay: Induction of apoptosis in human K562 cells assessed as viable cells at 20 nM using annexin V-propidium iodide and annexin V staining by flow cytometry (reference value: 87.02%); type: functional; settings: read-out: Activity
[16] = system: K562; assay: Induction of apoptosis in human K562 cells assessed as viable cells at 50 nM using annexin V-propidium iodide and annexin V staining by flow cytometry (reference value: 87.02%); type: functional; settings: read-out: Activity
[17] = system: K562; assay: Induction of apoptosis in human K562 cells assessed as viable cells at 100 nM using annexin V-propidium iodide and annexin V staining by flow cytometry (reference value: 87.02%); type: functional; settings: read-out: Activity
[18] = system: K562; assay: Induction of apoptosis in human K562 cells assessed as early apoptotic cells at 20 nM using annexin V-propidium iodide and annexin V staining by flow cytometry (reference value: 3.34%); type: functional
[19] = system: K562; assay: Induction of apoptosis in human K562 cells assessed as early apoptotic cells at 50 nM using annexin V-propidium iodide and annexin V staining by flow cytometry (reference value: 3.34%); type: functional
[20] = system: K562; assay: Induction of apoptosis in human K562 cells assessed as early apoptotic cells at 100 nM using annexin V-propidium iodide and annexin V staining by flow cytometry (reference value: 3.34%); type: functional
[21] = system: K562; assay: Induction of apoptosis in human K562 cells assessed as late apoptotic cells at 20 nM using annexin V-propidium iodide and annexin V staining by flow cytometry (reference value: […]%); type: functional
[22] = system: K562; assay: Induction of apoptosis in human K562 cells assessed as late apoptotic cells at 50 nM using annexin V-propidium iodide and annexin V staining by flow cytometry (reference value: […]%); type: functional
[23] = system: K562; assay: Induction of apoptosis in human K562 cells assessed as late apoptotic cells at 100 nM using annexin V-propidium iodide and annexin V staining by flow cytometry (reference value: […]%); type: functional
[24] = system: K562; assay: Induction of apoptosis in human K562 cells assessed as pre-necrotic cells at 20 nM using annexin V-propidium iodide and annexin V staining by flow cytometry (reference value: 1.42%); type: functional
[25] = system: K562; assay: Induction of apoptosis in human K562 cells assessed as pre-necrotic cells at 50 nM using annexin V-propidium iodide and annexin V staining by flow cytometry (reference value: 1.42%); type: functional
[26] = system: K562; assay: Induction of apoptosis in human K562 cells assessed as pre-necrotic cells at 100 nM using annexin V-propidium iodide and annexin V staining by flow cytometry (reference value: 1.42%); type: functional

Bcr/Abl fusion protein, sequence (P00519 whole entry, the tested form may be a part): as the sequence (P00519 whole entry, looked up, the tested form may be a part) above
Bcr/Abl fusion protein, sequence (P11274 whole entry, further chain, the tested form may be a part): as the sequence (P11274 whole entry, looked up, the tested form may be a part) above

Compound: Cc1cn(-c2cc(NC(=O)c3ccc(C)c(Nc4nc(-c5cccnc5)cs4)c3)cc(C34CC5CC(CC(C5)C3)C4)c2)cn1
- IC50 [1]: > 2000 nM
- IC50 [2]: 1060 nM
- IC50 [3]: 2800 nM
- IC50 [4]: 11800 nM

Compound: Cc1cn(-c2cc(NC(=O)c3cccc(Nc4nc(-c5cccnc5)cs4)c3)cc(C(F)(F)F)c2)cn1
- IC50 [1]: 3780 nM
- IC50 [2]: 3190 nM
- IC50 [3]: 2730 nM
- IC50 [4]: 1720 nM

Compound: CCc1ccc(C(=O)Nc2cc(-n3cnc(C)c3)cc(C(F)(F)F)c2)cc1Nc1nc(-c2cccnc2)cs1
- IC50 [1]: 5510 nM
- IC50 [2]: 1600 nM
- IC50 [3]: 945 nM
- IC50 [4]: 2720 nM

Compound: Cc1ncn(-c2cc(NC(=O)c3ccc(C)c(Nc4nc(-c5cccnc5)cs4)c3)cc(C(F)(F)F)c2)n1
- IC50 [1]: 480 nM
- IC50 [2]: 26 nM
- IC50 [3]: 38 nM
- IC50 [4]: 1630 nM

Compound: Cc1cn(-c2cc(NC(=O)c3ccc(C)c(Nc4nc(-c5cccnc5)cs4)c3)cc(C(F)(F)F)c2)cn1
- IC50 [1]: 671 nM
- IC50 [2]: 28 nM
- IC50 [3]: 30 nM
- IC50 [4]: 1830 nM

Compound: Cc1cn(-c2cc(NC(=O)c3ccc(C)c(Nc4nc(-c5cccnc5)cs4)c3)cc(C(C)(C)C)c2)cn1
- IC50 [1]: 20.1 nM
- IC50 [2]: 10 nM
- IC50 [3]: 11 nM
- IC50 [4]: 640 nM
- inhibition [5]: Active
- Activity [6]: 55.19%
- Activity [7]: 69.3%
- Activity [8]: 75.53%
- Activity [9]: 42.66%
- Activity [10]: 30.45%
- Activity [11]: 24.47%
- Activity [12]: 2.15%
- Activity [13]: 0.21%
- Activity [14]: 0%
- viability at 0.02 µM [15]: 95.7%
- viability at 0.05 µM [16]: 73.8%
- viability at 0.1 µM [17]: 56.7%
- Activity [18]: 5.06%
- Activity [19]: 6.87%
- Activity [20]: 11.11%
- Activity [21]: 8.15%
- Activity [22]: 16.34%
- Activity [23]: 27.04%
- Activity [24]: 1.14%
- Activity [25]: 3.11%
- Activity [26]: 5.18%

Compound: Cc1ccc(C(=O)Nc2cccc(C(F)(F)F)c2)cc1Nc1nc(-c2cccnc2)cs1
- IC50 [1]: > 10000 nM
- IC50 [2]: 3000 nM
- IC50 [3]: 1240 nM
- IC50 [4]: 1440 nM

Compound: Cc1cn(-c2cc(Cl)cc(NC(=O)c3ccc(C)c(Nc4nc(-c5cccnc5)cs4)c3)c2)cn1
- IC50 [1]: 1300 nM
- IC50 [2]: 812 nM
- IC50 [3]: 518 nM
- IC50 [4]: 2360 nM

Further lines, with some results ahead:

- IC50 [2]: 6.5 nM
- IC50 [4]: 260 nM
Compound: Cc1cn(-c2cc(NC(=O)c3ccc(C)c(Nc4nccc(-c5cccnc5)n4)c3)cc(C(F)(F)F)c2)cn1 [NILOTINIB]
- IC50 [3]: 3.4 nM

- IC50 [1]: 491 nM
- IC50 [2]: 27 nM
- IC50 [4]: 5380 nM
Compound: Cc1ccc(C(=O)Nc2cc(-c3cnn(C)c3)cc(C(F)(F)F)c2)cc1Nc1nc(-c2cccnc2)cs1
- IC50 [3]: 27.1 nM

- IC50 [1]: 277 nM
- IC50 [2]: 57 nM
- IC50 [4]: 3510 nM
Compound: Cc1ccc(C(=O)Nc2cc(-c3cn(C)nn3)cc(C(F)(F)F)c2)cc1Nc1nc(-c2cccnc2)cs1
- IC50 [3]: 90 nM

- IC50 [1]: 177 nM
- IC50 [2]: 31 nM
- IC50 [4]: 2910 nM
Compound: Cc1cn(-c2cc(NC(=O)c3ccc(C)c(Nc4nc(-c5cccnc5)cs4)c3)cc(C(C)C)c2)cn1
- IC50 [3]: 51 nM

- IC50 [2]: 380 nM
- IC50 [4]: 6.05 nM
Compound: Cc1ccc(NC(=O)c2ccc(CN3CCN(C)CC3)cc2)cc1Nc1nccc(-c2cccnc2)n1 [IMATINIB]
- IC50 [3]: 337 nM

- IC50 [1]: 507 nM
- IC50 [2]: 28 nM
- IC50 [4]: 2140 nM
Compound: Cc1ccc(C(=O)Nc2cc(-n3ccnc3)cc(C(F)(F)F)c2)cc1Nc1nc(-c2cccnc2)cs1
- IC50 [3]: 36 nM

- IC50 [1]: 774 nM
- IC50 [2]: 449 nM
- IC50 [4]: 3290 nM
Compound: Cc1cc(NC(=O)c2ccc(C)c(Nc3nc(-c4cccnc4)cs3)c2)cc(-n2cnc(C)c2)c1
- IC50 [3]: 871 nM
